Here are results for 1 compound from US10793520B2, “Sulfonylaminobenzamide compound and pest control agent” (Nippon Soda Co., Ltd., priority 2016, dated 2020).

One data set concerns Ascaridia galli. Put plainly: Efficacy test against Ascaridia galli (in vitro, L3 larvae, MEC). The conditions noted are these: activity against at least one type of target parasitic worm: Ascaridia galli L3 or Oesophagostomum dentatum L3/L4. How it is done:
Using the gut-welling larval stages of two parasitic worms: namely, the third stage larvae (L3) of Ascaridia galli, and the third and fourth stage larvae (L3 and L4 respectively) of Oesophagostomum dentatum, the bioactivity of compounds of the present invention were investigated in vitro. When conducting these tests, DMSO solutions of the compounds of the present invention were prepared at various concentrations and incubated in the wells of a 96-well microtiter plate. Subsequently, 20 parasitic worm larvae were inoculated into each well. The bioactivity was determined by inspection under a microscope. The inspection under a microscope included evaluations of the mortality rate, injury, motility, development progression, and neutral red uptake by the larvae compared with a DMSO control.

In the next data set the test system is Mythimna separata. The experiment in a line: Efficacy test against Mythimna separata (treated artificial feed). The conditions noted are these: in vivo. An outline of the steps: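 Second-instar larvae (2 per area) were given artificial feed mixed with a 5% active-constituent emulsion in DMF with polyoxyethylene alkyl aryl ether. They were kept sealed at 25 °C. Mortality (dead/tested ×100) and feed consumption were scored on day 5, with a compound-free emulsion as control.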

Each structure is given as a SMILES string. Where only a bound is given, the exact number is not on record here.

`O=C(Nc1ccc(F)c(C(F)(F)F)c1)c1ccc(OC(F)(F)F)cc1NS(=O)(=O)C(F)(F)F` [a-25]: the “MEC (minimum effective concentration)” value with Ascaridia galli is at most 25 µM. Besides, the “mortality rate against Mythimna separata, or amount of feed consumed relative to control” value with Mythimna separata was 100%, or the amount of feed consumed was 10% or less.
